# In patent US10935552B2, “Aie luminogens for visualization and treatment of cancer” (THE HONG KONG UNIVERSITY OF SCIENCE AND TECHNOLOGY, priority 2015, dated 2021):
# Counter-ions that a name gives are not always drawn.
# Tests used:
# HeLa cells [1] = test: Photostability by continuous confocal scanning of stained HeLa cells; type: cell-based, human
# Source text: Compared with LTR, the working concentration of AIE-LysoY is much higher. LTR is not more sensitive than AIE-LysoY. As mentioned previously, LTR can only be used at low concentrations to avoid the ACQ effect. At such a low working concentration, the fluorescent probes molecularly disperse in the organelle and can be easily photooxidized by continuous excitation light, resulting in the low photostability of these probes. In order to evaluate the photostability of AIE-LysoY, a confocal microscope (Zeiss laser scanning confocal microscope LSM7 DUO) was applied to continuously scan cells stained by AIE-LysoY. The photostability of LTR was also measured for comparison. The power of excitation light (405 nm for AIE-LysoY and 561 nm for LTR) were unified by using a power meter. […] In contrast, the fluorescence intensity from LTR dropped to lower than 50% of its initial value after only 25 scans (FIG. 28, hollow circle line). The slight fluctuation of fluorescence signal can be ascribed to the dynamic movement of lysosome in living cells. The excellent photostability of AIE-LysoY may stem from its nanoparticles nature in lysosome imaging, which can protect the chromophore inside the particles from being photooxidzied. In this way, the fluorescence of […] can pertain after a long-time irradiation. […]
# [2] = MTT cell viability assay, HeLa cells; type: cell-based, human; details: human, HeLa cells, 15 μM, MTT
# Procedure: Hela cells were incubated with different concentrations of Naph-IQ in culture medium for 24 hours.
# Before employing AIE-LysoY as a fluorescent visualizer of lysosome, a 3-(4,5-dimethyl-2-thiazolyl)-2,5-diphenyltetrazolium bromide (MTT) cell proliferation assay was first conducted to evaluate its cytotoxicity. […] The good biocompatibility of AIE-LysoY enables its application as a fluorescent tracer to follow the autophagic process of lysosome.
# lysosome = test: Lysosome imaging in HeLa cells, co-staining with LTR; type: cell-based, human; details: HeLa
# Procedure: Then, AIE-LysoY was applied to lysosome imaging and its lysosome-targeting performance was assessed by fluorescence microscope. HeLa cells were stained with 10 μM of AIE-LysoY for 10 min, followed by washing away the abundant molecules of AIE-LysoY and incubation with 50 nM of LTR for 30 min. […] The fluorescence of AIE-LysoY overlaps perfectly with that of LTR, indicating the lysosome-targeting of AIE-LysoY.
# Quantitative analysis of the degree of overlapping of these two fluorescence signals by Pearson's coefficient (Rr), which depicts the degree of linear dependence between two variables, gives an overlapping coefficient of 0.90. The high Rr value proves that AIE-LysoY is a lysosome-selective probe. […] Changing the staining time from 10 min to 60 min, the specificity to lysosome is retained, as well as the emission contrast.
# To design the lysosome-specific bioprobe, a molecular engineering approach was employed. The precursor of AIE-LysoY, FAS-Br, and two morpholine-functionalized AIEgens, TPE-2Mor and Nred-mor were prepared and applied to cell imaging. The molecular structures of TPE-2mor and Nred-mor are shown below: […]
# HeLa cells [3] = test: Cancer cell imaging for HeLa cells by IDA-TPE; type: cell-based, human; details: 10 μM, 30 mins
# Procedure: Cell Culture. HeLa cells were cultured in MEM containing 10% FBS and 1% antibiotics (100 units/mL penicillin and 100 µg/mL streptomycin) in a 5% CO2 humidity incubator at 37° C.
# The HeLa cells were grown overnight on a 35 mm petri dish with a cover slip. […] The cells were imaged under a fluorescent microscope (BX41 Microscope) using same excitation and emission filters: excitation filter=330-385 nm, dichroic mirror=420 nm, and emission filter=400 nm long pass.
# MCF-7 cells [4] = test: Photo-bleaching resistance by continuous scanning of stained MCF-7 cells; type: cell-based; details: MCF-7, 2 μM 30 min, 50 scans, total irradiation 3 min, 0.1 mW
# Procedure: In order to determine the working mechanism of TPE-TMX to MCF-7 cells, probes with long-term tracking are highly pursued. To compare the photo-bleaching resistance between TPE-TMX and LTR, continuous scanning of the stained MCF-7 cells by UV irradiation was carried out and the PL intensity at each scan was recorded. These two sets of MCF-7 cells were first incubated in a medium for 24 hrs and then stained with TPE-TMX and LTR at 2 μM for 30 min, respectively. The excitation power from 405 nm and 561 nm channels of the microscope was unified as 0.1 mW. The initial fluorescence intensity for the dyes was normalized and the percentage of intensity loss was calculated.
# MCF-7 cells [5] = test: Fluorescence microscopy and long-term tracing of MCF-7 cells treated with TPE-TMX; type: cell-based; details: for Fluorescence of stained cells with increasing number of passages: long-term tracing
# Source text: (§1) To examine this hypothesis, fluorescence microscopy of different cell lines treated with TPE-TMX was undertaken. […] Lysosome is an acidic enzyme enriched organelle responsible for digesting intracellular biomolecules, while TPE-TMX with a basic amino group is more favored to target the lysosomes in cells. Once the molecules are accumulated on the surface of lysosome, their intermolecular motions are restricted, which activates the AIE process and thus lights up the organelle.
# The whole cells exclude nuclei are highly emissive after the treatment of TPE-TMX for 192 hrs, which is proposed as autophagy. This mechanism is thought to be a degradation system that is mediated by a unique organelle called the autophagosome and then fuses with lysosome to form an autolysosome. Once the autolysosomes are formed, the cells become dysfunctional and eventually cause cell death. […] This is the first time that autophagy can be fluorescently monitored using a theranostic agent for breast cancer cells.
# [6] = cited from earlier work
# different cell lines = test: Fluorescence microscopy of different cell lines treated with TPE-TMX; type: cell-based
# Source text: as §1
# [7] = test system: ER independent breast cancer cells (MDA-MB-231 cells); test: MTT cytotoxicity of TPE-TMX, MDA-MB-231 cells; type: cell-based; details: MDA-MB-231, up to 10 μM
# Procedure: (§2) For the rational molecular design of TPE-TMX, it is extremely critical that it can restore its therapeutic ability as TMX after the modification. To investigate its therapeutic performance, the cytotoxicity of TPE-TMX to a variety of cell lines was evaluated using a MTT assay (FIG. 33). […] Therefore, TPE-TMX may form a complex with receptor that can manifest selective accumulation in MCF-7 cells and lead to cell death.
# a variety of cell lines = test: MTT cytotoxicity of TPE-TMX, other cell lines; type: cell-based; details: up to 10 μM
# Procedure: as §2
# [8] = test system: ER+ breast cancer cells (MCF-7 cells); test: MTT cytotoxicity of TPE-TMX, MCF-7 cells; type: cell-based
# Procedure: as §2
# MCF-7 cells [9] = test: Lysosomal imaging in MCF-7 cells, co-staining with LTR; type: cell-based
# Procedure: The behavior of TPE-TMX in cellular settings was studied as compared to TMX. MCF-7 cells were incubated with 2 μM TPE-TMX and […] TMX for 24 hrs, respectively. The cells were then washed and directly observed under the microscope without fixation. […] However, the exact intracellular location of TMX cannot be confirmed by fluorescent microscopy because its emission wavelength is not in the range of the visible spectrum. Therefore, a series of commercial fluorescent markers were used to image drug delivery of TMX. […] On the other hand, TPE-TMX, without any aid of fluorescent dye, can be successfully monitored in the cells thanks to its intense blue emission. The controls display no emission under UV irradiation.
# To further confirm the subcellular distribution of TPE-TMX, LTR was also used to co-stain MCF-7 cells with TPE-TMX. […] As expected, TPE-TMX is a specific fluorescent dye to visualize lysosomal organelle structures as well as monitor the drug release.
# HeLa cells [10] = test: Cancer cell imaging for HeLa cells (TTE, TFE, fl-TFE); type: cell-based, human
# Procedure: (§3) Cell Culture. HeLa cells were cultured in MEM containing 10% FBS and 1% antibiotics (100 units/mL penicillin and 100 µg/mL streptomycin) in a 5% CO2 humidity incubator at 37° C. Cell Imaging. Lung cancer cell A549 were cultured in DMEM containing 10% FBS and antibiotics (100 units/mL penicillin and 100 µg/mL streptomycin) in a 5% CO2 humidity incubator at 37° C. Two different kind of cells were grown overnight on a 35 mm petri dish with a cover slip. The live cells were incubated with 10 μM of TTE for 15/30 mins, TFE for 30′ and fl-TFE for 30′ and 5 h (the last two have been tested only in HeLa cells). In a typical experiment, 2 μL of a 10 mM stock solution of TTE in DMSO were diluted to 1 mL with cell culture medium, followed by further dilution to desired concentration. The cells were imaged under a fluorescent microscope (BX41 Microscope) using same excitation and emission filters: excitation filter=330-385 nm, dichroic mirror=420 nm, and emission filter=400 nm long pass.
# The HeLa cells were grown overnight on a 35 mm petri dish with a cover slip. The live cells were incubated with 10 μM of TTE for 30 mins, which are shown in FIG. 17A-B. The HeLa cells were incubated with 50 μM oleic acid for 6 hrs and then were co-stained by 10 μM TTE and 1 μg/mL for 15 mins.
# Lung cancer cell A549 = test: Cancer cell imaging for lung cancer cell A549 by TTE; type: cell-based; details: A549, 10 μM TTE, 15 mins
# Procedure: as §3
# The A549 cells were grown overnight on a 35 mm petri dish with a cover slip. The live cells were incubated with 10 μM of TTE for 30 mins. The A549 cells were incubated with 10 μM TTE and 1 μg/mL for 15 mins.
# HeLa cells [11] = test: Autophagy induction by rapamycin in AIE-LysoY-stained HeLa cells; type: cell-based, human; details: HeLa stained with 10 μM AIE-LysoY, prolonged rapamycin treatment
compound,measurement,setting,value
"Oc1cc(OCCCCCCN2CCOCC2)ccc1/C=N/N=C1c2ccccc2-c2ccccc21 [AIE-LysoY, (E)-2-(((9H-fluoren-9-ylidene)hydrazono)methyl)-5-((6-morpholinohexyl)oxy) phenol]",Fluorescence signal after continuous scanning,"HeLa cells [1]; 405 nm, total irradiation time ~6 min",almost remain unchanged
same,"viability at 24 h, 15 µM",[2],> 80%
same,Lysosome targeting,"lysosome; 10 μM 10 min, then 50 nM LTR 30 min",selectively accumulates in the dot-shaped lysosomes
same,Pearson's coefficient (Rr) of overlap with LTR,"lysosome; 10 μM AIE-LysoY, 50 nM LTR",0.90
"O=C(O)CN(CC(=O)O)Cc1ccc(C(=C(c2ccccc2)c2ccccc2)c2ccccc2)cc1 [IDA-TPE, iminodiacetic acid tetraphenylethene]",Cell uptake,HeLa cells [3],can go inside the cancer cell
same,Fluorescence staining of cells,HeLa cells [3],can target HeLa cells
"CN(C)CCNC(=O)CCc1ccc2n1[B-](F)(F)[N+]1=C(c3ccc[nH]3)C=CC1=C2 [LTR, reference compound]",Fluorescence intensity relative to initial value,"HeLa cells [1]; 561 nm, after 25 scans",lower than 50%
same,PL signal loss,MCF-7 cells [4],more than 55%
same,Fluorescence of stained cells with increasing number of passages,MCF-7 cells [5],dramatically weakened
"O=C(O)C(F)(F)F [TFA, trifluoroacetic acid]",pKa,[6],about −0.3
CN(C)CCOc1ccc(C(=C(c2ccccc2)c2ccccc2)c2ccccc2)cc1 [TPE-TMX],Subcellular localisation,different cell lines; all tested cell lines,localized on lysosomes in all tested cell lines
same,Morphological effect,different cell lines; other cell lines,no obvious morphological change
same,Cell viability by MTT,[7],not dramatically altered
same,Cell viability by MTT,a variety of cell lines,not dramatically altered
same,Cytotoxicity (therapeutic response) by MTT,[8],has only the therapeutic response to ER+ breast cancer cells (MCF-7 cells)
same,PL signal loss,MCF-7 cells [4],no significant PL loss
same,Subcellular distribution,"MCF-7 cells [9]; MCF-7, 2 μM 30 min, then LTR 15 min",selectively stains lysosomes
same,Pearson correlation coefficient of co-localization with LTR (r),"MCF-7 cells [9]; MCF-7, 2 μM TPE-TMX",0.96
same,Morphological effect,MCF-7 cells [5]; MCF-7,"induces the formation of vacuole, lysosomal swelling and cell death"
same,Effect on cells in continuous monitoring,"MCF-7 cells [5]; MCF-7, 2 μM","induce vacuoles, lysosome swelling, and loss of the cell population"
same,Fluorescence intensity in cells,MCF-7 cells [5]; MCF-7 versus other cell lines,more prominent in MCF-7 cells compared to the others
same,Fluorescence of stained cells with increasing number of passages,MCF-7 cells [5],increases with increasing number of passages
"c1csc(C(=C(c2cccs2)c2cccs2)c2cccs2)c1 [TTE, TetraThienylEthene]",Ability to enter cells as bioprobe,"HeLa cells [10]; 10 μM, TTE in HeLa and A549, TFE and fl-TFE only in HeLa",the only one able to enter inside the cells
same,Organelle selectivity (overlap with BODIPY),"HeLa cells [10]; HeLa, 50 μM oleic acid 6 hrs, 10 μM TTE, 15 mins",can selectively target lipid droplets
same,Organelle selectivity (overlap with BODIPY),Lung cancer cell A549,can selectively target lipid droplets
CO[C@H]1C[C@@H]2CC[C@@H](C)[C@@](O)(O2)C(=O)C(=O)N2CCCC[C@H]2C(=O)O[C@H]([C@H](C)C[C@@H]2CC[C@@H](O)[C@H](OC)C2)CC(=O)[C@H](C)/C=C(\C)[C@@H](O)[C@@H](OC)C(=O)[C@H](C)C[C@H](C)/C=C/C=C/C=C/1C [rapamycin],Lysosome number (yellow spots),HeLa cells [11],increased
